Molecular target: T1, human MRGPRX4 (Homo sapiens, UniProt Q96LA9)
T1 construct: expressed in transfected cells
Assay: MRGPRX4 antagonist calcium (FLIPR, Fluo-8) assay in HEK293T cells stably expressing human MRGPRX4, agonist 0.2 μM deoxycholic acid-3-phosphoric acid
Format: cell-based
Conditions: HEK293T cells stably expressing human MRGPRX4; antagonist mode; top conc. 30 μM, ten 3-fold serial dilutions; C may also mean <40% inhibition at 2 μM; read-out: Antagonist activity (IC50 class)
Description: HEK293T cells stably expressing human MRGPRX4 were cultured in DMEM medium supplements with 10% FBS, 100 U/mL penicillin-streptomycin, 20 mM HEPES and 1 μg/mL puromycin at 37° C. with 5% (v/v) CO2. One day before test, the cells were detached using TrypLE™ Express and counted using cell counter. In a 384-well plate cells were seeded at a density of 20,000 cells/well in 20 uL/well planting medium (DMEM medium supplements with 5% FBS, 100 U/mL penicillin-streptomycin and 20 mM HEPES), and incubated overnight at 37° C. with 5% (v/v) CO2. On the day of experiments, the dye solution, prepared following the manufacture's instruction of the Screen Quest™ Fluo-8 No Wash Calcium Assay Kit, was added to each well (20 μL/well) of the cell plate. The cell plate was incubated at 25° C. for 1 hour. Test compounds in different doses were transferred to the cell plate by FLIPR and the plate was kept in the dark at 25° C. for 30 minutes. The agonist solution, 0.2 μM of deoxycholic acid-3-phosphoric acid in assay buffer, was added to each well of the plate. The plate was read for 160 sec with 1 sec interval to obtain data of antagonist mode in FLIPR. For various compounds, IC50 values were calculated by fitting % inhibition against log of compound concentrations (top conc. 30 μM, ten 3-fold serial dilutions) with Hill equation using XLfit. […] Those skilled in the art appreciate that IC50 of various compounds can be assessed in accordance with the present disclosure.

T1 sequence (Q96LA9 whole entry): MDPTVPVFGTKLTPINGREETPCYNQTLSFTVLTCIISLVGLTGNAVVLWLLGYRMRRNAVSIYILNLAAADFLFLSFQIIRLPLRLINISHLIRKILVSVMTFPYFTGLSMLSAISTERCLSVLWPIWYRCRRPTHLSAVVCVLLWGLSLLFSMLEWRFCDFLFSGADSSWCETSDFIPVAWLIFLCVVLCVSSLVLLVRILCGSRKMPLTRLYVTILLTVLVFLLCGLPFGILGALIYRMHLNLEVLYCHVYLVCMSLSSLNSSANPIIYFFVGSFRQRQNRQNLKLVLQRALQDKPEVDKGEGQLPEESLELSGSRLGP

Q: Which IC50 does the source give for O=C(O)c1cc(C2CC2)cc(C2Cc3cc(C(F)(F)F)ccc3O2)c1 (stereo not shown) [Example 66] here?
A: 1 to 10 µM

Q: With CN(C)C(=O)c1cccc(C2Cc3cc(C(F)(F)F)ccc3O2)c1F (stereo not shown) [Example 75] as the compound, how does the IC50 read?
A: > 10 µM

Q: With O=C(O)c1cccc(C2Cc3cc(F)c(F)cc3O2)c1F (stereo not shown) [Example 81] as the compound, how does the IC50 read?
A: > 10 µM

Q: How did the IC50 turn out when Cc1c(-c2ccc(C(=O)O)cc2)n(C)c2cc(C(F)(F)F)ccc12 [Example 39] was run?
A: > 10 µM

Q: Cn1c(-c2ccc(F)c(C(=O)O)c2)cc2ccc(C(F)(F)F)cc21 [Example 2] was tested. Which IC50 did it give?
A: > 10 µM

Q: How did the IC50 turn out when O=C(O)c1cccc(-c2cc3ccc(C(F)(F)F)cc3o2)c1 [Example 51] was run?
A: > 10 µM

Q: O=C(O)c1ccc(-c2cc3ccc(C(F)(F)F)cc3n2C2CCCCC2)cc1 [Example 29] was tested. Which IC50 did it give?
A: 1 to 10 µM

Q: For O=C(O)c1ccc(-c2cc3ccc(C(F)(F)F)cc3[nH]2)cc1 [Example 3], which IC50 is on record?
A: > 10 µM

Q: With CC(C)n1c(-c2ccc(C(=O)O)cc2)cc2c(Cl)cc(C(F)(F)F)cc21 [Example 33] as the compound, how does the IC50 read?
A: > 10 µM

Q: For CNC(=O)c1cccc(C2Cc3cc(C(F)(F)F)ccc3O2)c1F (stereo not shown) [Example 74], which IC50 is on record?
A: > 10 µM

Q: Which IC50 does the source give for COc1c(C(=O)O)cccc1C1Cc2cc(C(F)(F)F)ccc2O1 (stereo not shown) [Example 56] here?
A: > 10 µM

Q: Which IC50 does the source give for NC(=O)c1cccc(C2Cc3cc(C(F)(F)F)ccc3O2)c1F (stereo not shown) [Example 73] here?
A: > 10 µM

Q: For CC1(c2cccc(C(=O)O)c2F)Cc2cc(C(F)(F)F)ccc2O1 (stereo not shown) [Example 86], which IC50 is on record?
A: 1 to 10 µM

Q: For COc1ccc2cc(-c3ccc(C(=O)O)cc3)n(C)c2c1 [Example 10], which IC50 is on record?
A: > 10 µM

Q: Cc1cc(C(=O)O)cc(C2Cc3cc(C(F)(F)F)ccc3O2)c1 (stereo not shown) [Example 67] was tested. Which IC50 did it give?
A: 1 to 10 µM

Q: How did the IC50 turn out when Cn1c(-c2ccc(C(=O)O)cc2)cc2cc(Cl)c(Cl)cc21 [Example 12] was run?
A: > 10 µM

Q: How did the IC50 turn out when O=C(O)c1cccc([C@@H]2Cc3cc(C(F)(F)F)ccc3O2)c1F [Compound 52A] was run?
A: < 1 µM

Q: Which IC50 does the source give for CCCn1c(-c2ccc(C(=O)O)cc2)cc2ccc(-c3ccccc3)cc21 [Example 23] here?
A: > 10 µM

Q: With N#Cc1cc(-c2nnn[nH]2)cc(C2Cc3cc(C(F)(F)F)ccc3O2)c1 (stereo not shown) [Compound 101] as the compound, how does the IC50 read?
A: < 1 µM

Q: For O=C(O)c1cccc(C2Cc3cc(F)cc(F)c3O2)c1F (stereo not shown) [Example 82], which IC50 is on record?
A: > 10 µM

Q: Cn1c(-c2ccc(C(=O)O)cc2)cc2cc(C(F)(F)F)ccc21 [Example 15] was tested. Which IC50 did it give?
A: 1 to 10 µM

Q: For Cn1c(-c2ccc(C(=O)O)cc2)cc2c(-c3ccccc3)cccc21 [Example 22], which IC50 is on record?
A: > 10 µM

Q: O=C(O)c1ccc(C2Cc3ccc(C(F)(F)F)cc3N2)cc1 (stereo not shown) [Example 41] was tested. Which IC50 did it give?
A: > 10 µM

Q: How did the IC50 turn out when O=C(O)c1cccc(C2Cc3cc(C(F)(F)F)ccc3O2)c1F (stereo not shown) [Example 87] was run?
A: > 10 µM

Q: How did the IC50 turn out when O=C(O)c1cc(Cl)cc(C2Cc3cc(C(F)(F)F)ccc3O2)c1 (stereo not shown) [Example 62] was run?
A: 1 to 10 µM

Q: O=C(O)c1cc(-c2ccccc2)cc(C2Cc3cc(C(F)(F)F)ccc3O2)c1 (stereo not shown) [Example 64] was tested. Which IC50 did it give?
A: > 10 µM

Q: O=C(O)c1cccc(C2Cc3cc(OC(F)(F)F)ccc3O2)c1F (stereo not shown) [Example 78] was tested. Which IC50 did it give?
A: 1 to 10 µM

Q: How did the IC50 turn out when O=C(O)c1ccc(-c2cc3ccc(C(F)(F)F)cc3n2C2CCC2)cc1 [Example 28] was run?
A: 1 to 10 µM

Q: Cn1c(-c2ccc(C(=O)O)cc2)cc2cccc(-c3ccccc3)c21 [Example 25] was tested. Which IC50 did it give?
A: > 10 µM

Q: How did the IC50 turn out when CC(C)n1c(-c2ccc(C(=O)O)cc2)cc2ccc(C(F)(F)F)cc21 [Example 5] was run?
A: 1 to 10 µM

Q: How did the IC50 turn out when Fc1ccc([C@@H]2Cc3c(ccc4ccccc34)O2)cc1-c1nnn[nH]1 [Compound 103] was run?
A: < 1 µM

Q: For O=C(O)c1ccc(F)c(C2Cc3cc(C(F)(F)F)ccc3O2)c1 (stereo not shown) [Example 54], which IC50 is on record?
A: > 10 µM

Q: For O=C(O)c1cccc(-c2cc3ccc(C(F)(F)F)cc3n2C2CCCC2)c1F [Example 32], which IC50 is on record?
A: > 10 µM

Q: How did the IC50 turn out when Fc1ccc(C2Cc3cc(C(F)(F)F)ccc3O2)cc1-c1nnn[nH]1 (stereo not shown) [Compound 98] was run?
A: < 1 µM

Q: With CCCn1c(-c2ccc(C(=O)O)cc2)cc2ccc(C(F)(F)F)cc21 [Example 16] as the compound, how does the IC50 read?
A: 1 to 10 µM

Q: O=C(O)c1ccc(C2Cc3cc(C(F)(F)F)ccc3O2)cc1F (stereo not shown) [Example 55] was tested. Which IC50 did it give?
A: > 10 µM

Q: Fc1ccc(C2Cc3c(ccc4ccccc34)O2)cc1-c1nnn[nH]1 (stereo not shown) [Compound 97] was tested. Which IC50 did it give?
A: < 1 µM

Q: O=C(O)c1cc(C2Cc3cc(C(F)(F)F)ccc3O2)ccc1F (stereo not shown) [Example 53] was tested. Which IC50 did it give?
A: 1 to 10 µM

Q: Which IC50 does the source give for Fc1c(-c2nnn[nH]2)cccc1C1Cc2c(ccc3ccccc23)O1 (stereo not shown) [Compound 92] here?
A: < 1 µM

Q: How did the IC50 turn out when O=C(O)c1cccc(C2Cc3cccc(C(F)(F)F)c3O2)c1F (stereo not shown) [Example 83] was run?
A: > 10 µM

Q: Which IC50 does the source give for O=C(O)c1ccc(-c2cc3ccc(C(F)(F)F)cc3n2Cc2ccccc2)cc1 [Example 26] here?
A: > 10 µM

Q: With CCOP(=O)(O)c1ccc(-c2cc3ccc(C(F)(F)F)cc3n2C)cc1 [Example 72] as the compound, how does the IC50 read?
A: > 10 µM

Q: Which IC50 does the source give for O=C(O)c1ccc(-c2cc3ccc(C(F)(F)F)cc3n2-c2ccccc2)cc1F [Example 35] here?
A: > 10 µM

Q: Cn1c(-c2cccc(C(=O)O)c2)cc2ccc(C#N)cc21 [Example 7] was tested. Which IC50 did it give?
A: > 10 µM

Q: Which IC50 does the source give for Cc1c(C(=O)O)cccc1C1Cc2cc(C(F)(F)F)ccc2O1 (stereo not shown) [Example 68] here?
A: > 10 µM

Q: How did the IC50 turn out when O=C(O)c1cc(Br)cc(-c2nc3cc(C(F)(F)F)c(Cl)cc3s2)c1 [Example 48] was run?
A: > 10 µM

Q: O=C(O)c1cccc(C2Cc3cc(C(F)(F)F)ccc3O2)c1F (stereo not shown) [Example 52] was tested. Which IC50 did it give?
A: < 1 µM

Q: Which IC50 does the source give for Cc1cc(-c2nnn[nH]2)cc(C2Cc3cc(C(F)(F)F)ccc3O2)c1 (stereo not shown) [Compound 94] here?
A: < 1 µM

Q: With CC(C)Cn1c(-c2ccc(C(=O)O)cc2)cc2ccc(C(F)(F)F)cc21 [Example 17] as the compound, how does the IC50 read?
A: 1 to 10 µM

Q: O=C(O)c1ccc(C2Cc3cc(C(F)(F)F)ccc3O2)cc1 (stereo not shown) [Example 61] was tested. Which IC50 did it give?
A: > 10 µM

Q: Cn1c(-c2ccc(C(=O)O)cc2)cc2ccc(C#N)cc21 [Example 6] was tested. Which IC50 did it give?
A: > 10 µM

Q: O=C(O)c1cc(-c2nc3c(C(F)(F)F)c(Cl)ccc3o2)ccc1F [Example 45] was tested. Which IC50 did it give?
A: > 10 µM

Q: With CCCn1c(-c2ccc(C(=O)O)cc2)cc2ccc(F)cc21 [Example 20] as the compound, how does the IC50 read?
A: > 10 µM

Q: Which IC50 does the source give for Fc1c(-c2nnn[nH]2)cccc1[C@@H]1Cc2c(ccc3ccccc23)O1 [Compound 102] here?
A: < 1 µM

Q: O=C(O)c1cccc(C2CCc3cc(C(F)(F)F)ccc3O2)c1F (stereo not shown) [Example 76] was tested. Which IC50 did it give?
A: > 10 µM

Q: With Cn1c(-c2ccc(P(=O)(O)O)cc2)cc2ccc(C(F)(F)F)cc21 [Example 71] as the compound, how does the IC50 read?
A: > 10 µM

Q: How did the IC50 turn out when COc1cc(C(=O)O)cc(C2Cc3cc(C(F)(F)F)ccc3O2)c1 (stereo not shown) [Example 58] was run?
A: > 10 µM

Q: Which IC50 does the source give for CCCn1c(-c2ccc(C(=O)O)cc2)cc2ccc(S(C)(=O)=O)cc21 [Example 24] here?
A: > 10 µM

Q: For O=C(O)c1ccc(-c2[nH]c3cc(C(F)(F)F)ccc3c2F)cc1 [Example 38], which IC50 is on record?
A: > 10 µM

Q: How did the IC50 turn out when O=C(O)c1ccc(-c2cc3ccc(C(F)(F)F)cc3n2C2CCCC2)cc1 [Example 27] was run?
A: 1 to 10 µM

Q: For O=C(O)c1cccc([C@H]2Cc3cc(C(F)(F)F)ccc3O2)c1F [Compound 52B], which IC50 is on record?
A: > 10 µM

Q: How did the IC50 turn out when O=C(O)c1cccc(C2Cc3cc(F)cc(Cl)c3O2)c1F (stereo not shown) [Example 84] was run?
A: > 10 µM

Q: Which IC50 does the source give for Fc1cc(-c2nnn[nH]2)cc(C2Cc3cc(C(F)(F)F)ccc3O2)c1 (stereo not shown) [Compound 91] here?
A: < 1 µM

Q: How did the IC50 turn out when Fc1ccc([C@@H]2Cc3cc(C(F)(F)F)ccc3O2)cc1-c1nnn[nH]1 [Compound 104] was run?
A: < 1 µM

Q: For O=C(O)c1cc(-c2nc3cc(C(F)(F)F)c(Cl)cc3o2)ccc1F [Example 42], which IC50 is on record?
A: > 10 µM

Same assay, conditions: HEK-293T; single concentration 0.5 μM; HEK293T cells stably expressing human MRGPRX4

Q: FC(F)(F)c1ccc2c(c1)CC(c1cc(-c3nnn[nH]3)cc(C3CC3)c1)O2 (stereo not shown) [Compound 90] was tested. Which inhibition at 0.5 µM did it give?
A: 27%

Q: For Fc1c(-c2nnn[nH]2)cccc1C1Cc2cc(OC(F)(F)F)ccc2O1 (stereo not shown) [Compound 96], which inhibition at 0.5 µM is on record?
A: 3.7%

Q: For Cc1ccc2c(c1)CC(c1cccc(-c3nnn[nH]3)c1F)O2 (stereo not shown) [Compound 95], which inhibition at 0.5 µM is on record?
A: 8.6%

Same assay, conditions: HEK-293T; single concentration 2 μM; HEK293T cells stably expressing human MRGPRX4

Q: For Fc1c(-c2nnn[nH]2)cccc1[C@H]1Cc2cc(C(F)(F)F)ccc2O1 [Compound 89], which inhibition at 2 µM is on record?
A: 61%

Same assay, conditions: S enantiomer 52A versus 52B; see Table 1

Q: How did the “MRGPRX4 inhibition activity, comparison of enantiomers” value turn out when O=C(O)c1cccc([C@@H]2Cc3cc(C(F)(F)F)ccc3O2)c1F [Compound 52A] was run?
A: much higher MRGPRX4 inhibition activity than 52B

Reference: US20250326777A1, “COMPOUNDS, COMPOSITIONS AND METHODS THEREOF” (HEPAITECH (BEIJING) BIOPHARMA TECHNOLOGY CO., LTD., priority 2022, published 2025)
